Experimental data: patent US20090088441A1, “Quinoline Compounds” (priority 2007, published 2009)

Target: T1, GABABR1a/GABABR2 heterodimer (Homo sapiens, UniProt O75899+Q9UBS5)
T1 construct: expressed in transfected cells; membrane preparation
Test: GTPγS35 radioligand filtration-binding assay for determination of agonist potency
Assay type: biochemical
Conditions: membranes of CHO K1 Flp-In cells expressing GABABR1a/GABABR2; 30° C., 1 hour
Procedure: The potency and efficacy of the compounds acting as agonists at the GABAB receptor was also determined in a automated GTPγS^35 radioligand filtration-binding assay.
The GABAB receptor is a G-protein coupled receptor. Binding of a ligand activates the receptor leading to recruitment of G-protein and a substitution of the G-protein bound GDP to GTP. The G-protein becomes active. The G-protein is inactivated by hydrolysis of GTP to GDP. G-proteins are membrane bound and therefore present in membrane preparations.
In the GTPγS^35 assay, GTP is not present but instead GTPγS^35 where one of the phosphate groups are substituted to a sulphur group which cannot be hydrolysed. Upon activation of the receptor, radiolabelled GTPγS^35 replaces the GDP. The complex cannot be inactivated and the radiolabelled complex is accumulating. At the end of the assay, the reaction mixture is filtered through a membrane-binding filter. Excess GTPγS^35 is removed by washing and the membrane bound S^35, which correlates to the degree of receptor activation, is measured with a β-Liquid Scintillation Counter.
The human GABABR1a was subcloned into pIRESneo3 (Clontech) using GABABR1a construct as a template (refseqN NM001470). GABABR2 was subcloned into pcDNA5/FRT (Invitrogen) using GABABR2 construct as a template (refseqN NM005458). The Kozak sequence GCCACC was introduced before the start codon in both constructs.
For generation of stable cell lines, CHO K1 Flp-In cells (Invitrogen) were grown in DMEM/F12 1:1 media supplemented with 10% FBS at 37° C. in a humidified CO2-incubator. The cells were detached with Accutase and 1.5 million cells were seeded into T75 flasks. After 24 h, transfection of the cells were performed with the GABABR2 construct. For generation of cell lines expressing GABABR2, GABABR2 plasmid (1 μg) and pOG44 from Invitrogen (9 μg) were mixed with 30 μl Lipofectamine 2000 in 600 μl OptiMEM for 20 minutes. The cells were exposed to transfection medium for 5 hours and was then replaced with culture medium. After 2 days 0.5 mg/ml Hygromycin were added to culture medium. The cells were cultured for an additional 10 days to establish a stable cell mix expressing GABABR2. For generation of a cell line expressing the GABABR1a/GABABR2 hetrodimer, GABABR1a plasmid DNA (8 μg) and Lipofectamine (30 μl) were mixed in 600 μl OptiMEM and incubated for 20 minutes before added to CHO-Flp-In cells expressing GABABR2. After 2 days additional selection agent was added (0.8 mg/ml Geneticin). The cells were cultured for another 10 days to generate a stable mixed population expressing the GABABR1a/GABABR2 heterodimer. The cell line was analyzed by GTPγS^35 assay with GABA as agonist.
GTPγS^35 radioligand filtration-binding assays were performed using an automated workstation at 30° C. for 1 hour in assay buffer (50 mM HEPES, 40 mM NaCl, 1 mM MgCl2×6H2O, 30 μg/mL Saponin, pH 7.4 at RT) containing 0.025 μg/μL of membrane protein (prepared from the cell line described above), 10 μM GDP and 0.55 nCi/μL GTPγS^35 in a final volume of 60 μL. The reaction was started by the addition of compounds (GABA was always included as a positive control), start concentration 100 μM dilution factor 3. The reaction was terminated and membranes collected by addition of ice-cold wash buffer (50 mM Tris-HCl, 5 mM MgCl2×6H2O, 50 mM NaCl, pH 7.4 at 4° C.) followed by rapid filtration under vacuum through a MultiScreen HTS 384 FB filter plate. Repeated washing of the filters with ice-cold wash buffer washed the unbound radioligand away. The filter plates were dried for 1½-2 hours at 50° C., then 8 μL scintillation liquid was added per well followed by incubation at RT for at least 20 minutes before bound radioactivity was determined using a β-Liquid Scintillation Counter (1450 Microbeta Trilux, Wallac, Finland)
100% activation (max) is calculated as the mean value for wells containing 1 mM GABA. […]

T1 sequence (Q9UBS5 15-961 limits assumed): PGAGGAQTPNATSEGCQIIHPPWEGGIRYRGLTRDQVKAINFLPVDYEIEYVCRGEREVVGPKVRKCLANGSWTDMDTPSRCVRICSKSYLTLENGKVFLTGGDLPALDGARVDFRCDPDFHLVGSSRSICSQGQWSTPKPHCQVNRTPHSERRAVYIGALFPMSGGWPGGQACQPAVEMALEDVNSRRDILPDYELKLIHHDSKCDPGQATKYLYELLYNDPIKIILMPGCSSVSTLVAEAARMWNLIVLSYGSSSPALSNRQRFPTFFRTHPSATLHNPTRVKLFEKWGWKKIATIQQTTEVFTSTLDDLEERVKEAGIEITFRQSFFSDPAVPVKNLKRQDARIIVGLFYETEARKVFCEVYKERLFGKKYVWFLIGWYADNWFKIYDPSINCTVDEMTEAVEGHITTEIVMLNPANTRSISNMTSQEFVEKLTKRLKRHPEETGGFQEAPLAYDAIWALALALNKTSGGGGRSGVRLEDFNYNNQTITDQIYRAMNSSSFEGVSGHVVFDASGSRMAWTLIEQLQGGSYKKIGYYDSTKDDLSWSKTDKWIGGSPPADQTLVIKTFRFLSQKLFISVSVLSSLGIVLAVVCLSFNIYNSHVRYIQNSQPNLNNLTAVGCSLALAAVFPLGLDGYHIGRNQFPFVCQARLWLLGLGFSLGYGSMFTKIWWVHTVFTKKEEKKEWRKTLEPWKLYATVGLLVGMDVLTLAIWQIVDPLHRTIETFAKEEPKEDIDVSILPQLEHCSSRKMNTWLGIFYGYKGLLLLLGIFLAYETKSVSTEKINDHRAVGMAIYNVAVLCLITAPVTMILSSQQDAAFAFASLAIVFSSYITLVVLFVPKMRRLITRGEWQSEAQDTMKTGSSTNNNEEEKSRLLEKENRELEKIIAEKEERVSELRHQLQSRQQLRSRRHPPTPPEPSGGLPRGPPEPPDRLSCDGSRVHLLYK
T1 sequence (O75899 42-941): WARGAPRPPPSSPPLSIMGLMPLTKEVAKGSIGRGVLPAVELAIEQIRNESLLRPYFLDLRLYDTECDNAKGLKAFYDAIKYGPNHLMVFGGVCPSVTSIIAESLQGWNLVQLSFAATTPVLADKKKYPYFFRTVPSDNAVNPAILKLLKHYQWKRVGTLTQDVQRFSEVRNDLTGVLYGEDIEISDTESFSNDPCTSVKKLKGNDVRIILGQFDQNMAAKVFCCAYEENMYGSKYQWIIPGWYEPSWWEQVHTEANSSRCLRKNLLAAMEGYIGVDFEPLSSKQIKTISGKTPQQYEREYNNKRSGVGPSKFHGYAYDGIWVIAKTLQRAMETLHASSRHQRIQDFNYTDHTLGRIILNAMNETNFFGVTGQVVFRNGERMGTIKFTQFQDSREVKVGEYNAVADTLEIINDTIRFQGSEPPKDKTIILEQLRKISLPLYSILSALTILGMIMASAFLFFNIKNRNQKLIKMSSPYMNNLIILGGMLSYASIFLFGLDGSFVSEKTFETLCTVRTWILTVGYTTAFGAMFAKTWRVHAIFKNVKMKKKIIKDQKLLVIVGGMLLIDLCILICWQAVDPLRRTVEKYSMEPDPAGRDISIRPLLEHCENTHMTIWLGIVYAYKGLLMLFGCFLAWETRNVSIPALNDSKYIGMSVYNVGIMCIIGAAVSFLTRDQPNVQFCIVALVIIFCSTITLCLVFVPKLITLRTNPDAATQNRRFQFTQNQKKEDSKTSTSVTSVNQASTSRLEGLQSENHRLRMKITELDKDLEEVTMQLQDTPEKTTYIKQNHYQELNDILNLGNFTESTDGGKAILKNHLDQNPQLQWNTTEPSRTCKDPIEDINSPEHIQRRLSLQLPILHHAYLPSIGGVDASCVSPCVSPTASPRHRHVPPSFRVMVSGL

SMILES	EC50
Cc1nc2ccc(N3CCCCC3)cc2c(-c2ccc(F)cc2)c1C(C)Oc1ccc(S(C)(=O)=O)cc1 (stereo not drawn) [Example 8, 4-(4-fluorophenyl)-2-methyl-3-{1-[4-(methylsulfonyl)phenoxy]ethyl}-6-piperidin-1-ylquinoline]	1.7 µM
Cc1nc2ccc(N3CCN(C)CC3)cc2c(-c2ccc(F)cc2)c1C(C)Oc1ccc(Cl)cc1 (stereo not drawn) [Example 17, 3-[1-(4-chlorophenoxy)ethyl]-4-(4-fluorophenyl)-2-methyl-6-(4-methylpiperazin-1-yl)quinoline]	7.6 µM
Cc1nc2ccc(N3CCCCC3)cc2c(-c2ccc(F)cc2)c1C(C)Oc1cccc(C#N)c1 (stereo not drawn) [Example 7, 3-{1-[4-(4-fluorophenyl)-2-methyl-6-piperidin-1-ylquinolin-3-yl]ethoxy}benzonitrile]	1.5 µM
Cc1nc2ccc(N3CCCCC3)cc2c(-c2ccc(F)cc2)c1C(C)Oc1ccc(O)cc1 (stereo not drawn) [Example 19, 4-{1-[4-(4-fluorophenyl)-2-methyl-6-piperidin-1-ylquinolin-3-yl]ethoxy}phenol]	1.2 µM
Cc1nc2ccc(N3CCCCC3)cc2c(-c2ccc(F)cc2)c1C(C)Oc1cccc(N(C)C)c1 (stereo not drawn) [Example 12, (3-{1-[4-(4-fluorophenyl)-2-methyl-6-piperidin-1-ylquinolin-3-yl]ethoxy}phenyl)dimethylamine]	2.2 µM
Cc1nc2ccc(N3CCCCC3)cc2c(-c2ccc(F)cc2)c1C(C)Oc1cccc(C(N)=O)c1 (stereo not drawn) [Example 14, 3-{1-[4-(4-fluorophenyl)-2-methyl-6-piperidin-1-ylquinolin-3-yl]ethoxy}benzamide]	4.5 µM
COc1ccc(OC(C)c2c(C)nc3ccc(N4CCCCC4)cc3c2-c2ccc(F)cc2)cc1 (stereo not drawn) [Example 11, 4-(4-fluorophenyl)-3-[1-(4-methoxyphenoxy)ethyl]-2-methyl-6-piperidin-1-ylquinoline]	1.6 µM
Cc1nc2ccc(N3CCN(C)CC3)cc2c(-c2ccc(F)cc2)c1C(C)Oc1ccccc1C(C)C (stereo not drawn) [Example 18, 4-(4-fluorophenyl)-3-[1-(2-isopropylphenoxy)ethyl]-2-methyl-6-(4-methylpiperazin-1-yl)quinoline]	4.3 µM
Cc1nc2ccc(N3CCCCC3)cc2c(-c2ccc(F)cc2)c1C(C)Oc1ccc(C#N)cc1 (stereo not drawn) [Example 6, 4-{1-[4-(4-fluorophenyl)-2-methyl-6-piperidin-1-ylquinolin-3-yl]ethoxy}benzonitrile]	2.9 µM

Continued, values first:

EC50	SMILES
1.8 µM	Cc1nc2ccc(N3CCCCC3)cc2c(-c2ccc(F)cc2)c1C(C)Oc1ccccn1 (stereo not drawn) [Example 5, 4-(4-fluorophenyl)-2-methyl-6-piperidin-1-yl-3-[1-(pyridin-2-yloxy)ethyl]quinoline]
1.3 µM	Cc1nc2ccc(N3CCCCC3)cc2c(-c2ccc(F)cc2)c1C(C)Oc1ccccc1Cl (stereo not drawn) [Example 10, 3-[1-(2-chlorophenoxy)ethyl]-4-(4-fluorophenyl)-2-methyl-6-piperidin-1-ylquinoline]
3 µM	Cc1nc2ccc(N3CCCCC3)cc2c(-c2ccc(F)cc2)c1C(C)Oc1cccnc1 (stereo not drawn) [Example 9, 4-(4-fluorophenyl)-2-methyl-6-piperidin-1-yl-3-[1-(pyridin-3-yloxy)ethyl]quinoline]
0.9 µM	Cc1nc2ccc(N3CCCCC3)cc2c(-c2ccc(F)cc2)c1C(C)Oc1ccccc1C#N (stereo not drawn) [Example 15, 2-{1-[4-(4-fluorophenyl)-2-methyl-6-piperidin-1-ylquinolin-3-yl]ethoxy}benzonitrile]
24 µM	Cc1nc2ccc(N3CCCCC3)cc2c(-c2ccc(F)cc2)c1C(C)n1ccccc1=O (stereo not drawn) [Example 16, 1-{1-[4-(4-fluorophenyl)-2-methyl-6-piperidin-1-ylquinolin-3-yl]ethyl}pyridin-2(1H)-one]
0.3 µM	Cc1nc2ccc(N3CCCCC3)cc2c(-c2ccc(F)cc2)c1C(C)Oc1ccccc1C(C)C (stereo not drawn) [Example 13, 4-(4-fluorophenyl)-3-[1-(2-isopropylphenoxy)ethyl]-2-methyl-6-piperidin-1-ylquinoline]
